Numbered stars: 1 amine (or outer) side, 2 acyl side, 3 side chain; on linkers, the order of the positions; unused ones are H or OH. Square brackets hold non-standard residues; d marks the D form. Peptide text beside a SMILES is read from it. X1 = CN([C@H](C(=O)[*:2])[C@@H](O)C(N)=O)[*:1]; Pro(4S-Me) = C[C@@H]1CN[C@H](C(=O)O)C1; N(OH)Ala = C[C@H](NO)C(=O)O; Lac = C[C@H](O)C(=O)O; Dha = C=C(N)C(=O)O
Legend:
[1] = tested on: HCT116 colorectal cancer cells; assay: MTT cell viability assay, parental HCT116; assay type: cell-based, human; conditions: for IC50: 48 h treatment, read-out: IC50 against HCT116 colorectal cancer cells
Method: (§1) Parental HCT116, HCT116^HIF-1α−/−HIF-2α−/−, HCT116^HIF-1α−/−, HCT116^HIF-2α−/−, HCT116^WT KRAS along with normal colon cell line CCD841-CoN were cultured in Dulbecco's modified Eagle medium (DMEM, Life Technologies, USA) supplemented with 10% Fetal Bovine Serum (FBS, Sigma, USA) and maintained in 5% CO2 at 37° C. HCT116 cells (8,000 cells/well) and normal cells (3,000 cells/well) were seeded in 96-well plates, allowed to attach overnight and then treated with different concentrations of GB1 (1a) or solvent control (0.5% DMSO). Cell viability was measured 48 h following treatment with MTT dye using manufacturer's protocol (Promega). IC50 was determined by non-linear regression analysis using GraphPad Prism 8. Data are represented as average±SD (n=3).

[2] = from C=CCON(C(=O)[C@H]([C@@H](O[Si](C)(C)C(C)(C)C)C(=O)NC(c1ccccc1)(c1ccccc1)c1ccccc1)N(C)C(=O)C(C)OC(=O)[C@@H]1CC(C)CN1C(=O)OCC1c2ccccc2-c2ccccc21)[C@@H](C)C(=O)N[C@@H](C[Se]c1ccccc1)C(=O)OCC1c2ccccc2-c2ccccc21; amide bond; PyBOP/HOAt/DIEA; CH2Cl2; 0.61 mM; 25.0 °C; 24.0 h; 2 steps
HCT116^WT KRAS cells = assay: MTT cell viability assay, oncogenic KRAS knockout; assay type: cell-based, human; conditions: 48 h, versus parental HCT116
Method: as §1

COLO205 cells = assay: NCI-60 screen (sulforhodamine B assay), COLO205; assay type: cell-based; conditions: NCI-60 data, read-out: GI50 against COLO205 cells
Excerpt: (§2) FIG. 27 depicts a heatmap for the performance of GB1 across cell lines in the NCI-60 screen using three different values (growth-inhibitory effect, GI50; cytostatic effect, TGI; cytotoxic effect, LC50; concentration in M).

[3] = tested on: CCD841-CoN normal epithelial colon cells; assay: MTT cell viability assay, normal colon cells; assay type: cell-based; conditions: 48 h treatment
Method: as §1

HCT116^HIF-1α−/− cells = assay: MTT cell viability assay, isogenic HCT116 HIF-1α knockout; assay type: cell-based, human; conditions: 48 h, versus parental HCT116
Method: as §1

[4] = tested on: ovarian (OVCAR-3) cancer cells; assay: NCI-60 screen, OVCAR-3; assay type: cell-based; conditions: NCI-60 data
Excerpt: as §2

[5] = tested on: melanoma (SK-MEL-5) cancer cells; assay: NCI-60 screen, SK-MEL-5; assay type: cell-based; conditions: NCI-60 data
Excerpt: as §2

HCT116 cells [6] = assay: HCT116 cell cycle analysis (propidium iodide, flow cytometry); assay type: cell-based, human; conditions: 320 nM, 1 μM, 3.2 μM, 24 h
Method: FIG. 25 depicts a cell cycle analysis. HCT116 cells were treated with GB1 (320 nM, 1 μM, 3.2 μM) or vehicle control (0.25% DMSO) for 24 h and DNA content assessed by flow cytometry of propidium iodide stained cells.
HCT116 cells were seeded in 6-well plates (400,000 cells/well, DMEM/10% FBS and allowed to attach overnight prior to treatment with GB1. Media was replaced by fresh DMEM/10% FBS after 24 h of incubation and treated with compound and solvent control (0.25% DMSO) for 24 h. The medium in each well was collected separately, and the cells washed with 500 μL PBS and collected into the corresponding tubes. Cells were detached using trypsin (Invitrogen) and collected into the corresponding tubes and centrifuged at 400 g for 10 min at 4° C. The supernatant was discarded and the cell pellets were resuspended in 500 μL ice-cold PBS, centrifuged at 400 g for 10 min at 4° C. and supernatant was discarded. The cell pellets were resuspended in 300 μL ice-cold PBS and 700 μL ice-cold EtOH was added slowly to each cell suspension with gentle pipetting. Cells were incubated at −20° C. overnight and centrifuged at 400 g for 10 min at 4° C. next day. […] Fluorescence from propidium iodide-DNA complexes were quantified using FACScan (BD Biosciences LSRFortessa) and data were analyzed using ModFit LT (Verity Software House).

[7] = Qualitative test for Fe(III) chelating ability; assay type: physicochemical; conditions: FeCl3 solution in ethanol (5% wt), orange spot
Excerpt: We applied a solution of GB1 (1a) in CH2Cl2 to reverse TLC (C18) (MeOH/H2O 1:1, v/v), then dipped the TLC into FeCl3 solution in ethanol (5% wt).

VEGFA = assay: HIF target gene (VEGFA) expression by RT-qPCR; assay type: cell-based, human; conditions: 3.2 μM (4×IC50), 16 h, parental HCT116 cells, β-actin endogenous control
Method: FIG. 26 depicts HIF target gene (VEGFA) expression after 16 h exposure of parental HCT116 cells to GB1 (3.2 μM) or vehicle (0.25% DMSO). RNA was isolated, reverse transcribed and subjected to qPCR using TaqMan analysis. β-actin served as endogenous control. Error bars indicate mean±SD of three replicates (student t test, *p<0.05).
HCT116 cells were seeded in 6-well plates at a density of 4×10^5 per well and incubated overnight for cells to attach. Cells were treated with 3.2 μM GB1 or 0.25% DMSO (vehicle). RNA was isolated 16 h later using the RNeasy mini kit (QIAGEN, Valencia, CA). Total RNA was quantified using NanoDrop 2000. cDNA synthesis was carried out using SuperScript II Reverse Transcriptase (Invitrogen, Carlsbad, CA) and oligo (dT) (Invitrogen) from 2 μg of total RNA. The qPCR after reverse transcription (RT-qPCR) was performed on a 25 μL reaction solution containing a […] aliquot of cDNA, 12.5 μL of TaqMan gene expression master mix, 1.25 μL of probes, and 11 μL RNase-free water. qPCR was carried out on an ABI 7300 sequence detection system using the thermocycler program: 2 min at 50° C., 10 min at 95° C., and 15 s at 95° C. (40 cycles) and 1 min at 60° C. Experiments were performed in triplicate. Probes for target gene: VEGFA (Hs00900055_m1) and for endogenous control: β-actin (Hs99999903_m1). […]

[8] = tested on: HCT116^HIF-1α−/−HIF-2α−/− cells; assay: MTT cell viability assay, isogenic HCT116 double knockout; assay type: cell-based, human; conditions: 48 h, versus parental HCT116
Method: as §1

tubulin = assay: Tubulin polymerization assay (fluorescence based in vitro kit); assay type: biochemical; conditions: tubulin 2 mg/mL, 37° C., 1 hour
Method: Tubulin polymerization was performed using fluorescence based in vitro polymerization kit (Cytoskeleton, #BK011P) per the manufacturer recommendation. Briefly, the provided tubulin was reconstituted to 10 mg/mL stock, as recommended, and used at final concentration of 2 mg/mL in 80 mM PIPES pH 6.9, 2.0 mM MgCl2, 0.5 mM EGTA, 1.0 mM GTP and 15% glycerol for the assays. The compound was prepared in 3-fold dilutions and kept on ice until the assay was started. Buffer components and tubulin stocks were kept on ice until use. The assay plate was pre-warmed at 37° C. for 10 minutes and the compounds were added to the plate wells at 5 uL (<10% DMSO) for 1 minute to warm. Fifty microliters of tubulin reaction mix (2 mg/mL in 80 mM PIPES pH 6.9, 2.0 mM MgCl2, 0.5 mM EGTA, 1.0 mM GTP and 15% glycerol) was added to each well and mixed gently with the inhibitor to avoid bubble formation. The plate was read on FlexStation3 reader (Molecular Devices) at 360 nm excitation/450 nm emission, every minute for 1 hours at 37° C. Decrease in fluorescent signal indicated inhibition of polymerization.

HCT116 cells [9] = assay: NCI-60 screen (sulforhodamine B assay), HCT116; assay type: cell-based, human; conditions: NCI-60 data, read-out: GI50 against HCT116 cells
Excerpt: as §2

HCT116^HIF-2α−/− cells = assay: MTT cell viability assay, isogenic HCT116 HIF-2α knockout; assay type: cell-based, human; conditions: 48 h, compared among isogenic lines
Method: as §1

[10] = tested on: prostate (DU-145) cancer cells; assay: NCI-60 screen, DU-145; assay type: cell-based; conditions: NCI-60 data
Excerpt: as §2

HeLa cells = assay: Caspase-3/7 activity (Caspase-Glo 3/7) in HeLa cells; assay type: cell-based; conditions: increasing concentrations, 14 h, 24 h and 36 h
Method: FIG. 29 depicts that GB1 causes apoptosis in HeLa cells with increased caspase activity. HeLa cells were treated with increasing concentrations of GB1 and combretastatin-4 (CA-4) (100 nM) using 0.5% DMSO as solvent control. Caspase-3/7 activity was measured using Caspase-Glo 3/7 reagent kit at 14 h, 24 h and 36 h. Data represents average of three replicates with ±SD. The p-values were calculated using two-tailed Student t-test; *p<0.05, **p<0.01, ***p<0.005.

NCI-60 cell lines = conditions: versus paclitaxel, eribulin, colchicine and vinca bis-indole alkaloid derivatives
Excerpt: Furthermore, cervical and breast cancers are relevant indications, prompting additional studies in these cell types^35.

Gatorbulin-2 [GB2]
IC50 [1]: > 10000 nM

C=CCON1C(=O)[C@H]([C@@H](O[Si](C)(C)C(C)(C)C)C(=O)NC(c2ccccc2)(c2ccccc2)c2ccccc2)N(C)C(=O)C(C)OC(=O)[C@@H]2CC(C)CN2C(=O)[C@H](C[Se]c2ccccc2)NC(=O)[C@@H]1C (stereo partly drawn)
ring closure, yield of all isomers [2]: 60.3%

C=C1NC(=O)[C@H](C)N(O)C(=O)[C@H]([C@@H](O)C(N)=O)N(C)C(=O)[C@H](C)OC(=O)[C@@H]2C[C@H](C)CN2C1=O [GB1, Gatorbulin-1] (cyclo([Dha][Pro(4S-Me)][Lac][X1][N(OH)Ala]))
potency and efficacy against oncogenic KRAS knockout (HCT116^WT KRAS) (HCT116^WT KRAS cells): reduced | GI50 (COLO205 cells): 92 nM | effect on the viability of CCD-841CoN normal epithelial colon cells [3]: marginal effect | IC50 ([3]; read-out: IC50 against normal mucosal colon cells): > 10000 nM | potency and efficacy against HCT116^HIF-1α−/− (HCT116^HIF-1α−/− cells): reduced | susceptibility of OVCAR-3 ovarian cancer cells [4]: susceptible | susceptibility of SK-MEL-5 melanoma cells [5]: susceptible | cell cycle effect (DNA content) (HCT116 cells [6]): induced G2/M accumulation | Fe(III) chelating ability (FeCl3 on TLC) [7]: positive reaction | HIF-1α target gene VEGFA expression (VEGFA): downregulation | potency and efficacy against HCT116^HIF-1α−/−HIF-2α−/− [8]: reduced | inhibition of tubulin polymerization in vitro (tubulin): directly inhibits tubulin polymerization | GI50 (HCT116 cells [9]): 306 nM | antiproliferative activity, relative susceptibility of HCT116^HIF-2α−/− (HCT116^HIF-2α−/− cells): most susceptible | antiproliferative activity, relative susceptibility of parental HCT116 cells ([1]; 48 h, compared among isogenic lines): most susceptible | IC50 [1]: 800 nM | susceptibility of DU-145 prostate cancer cells [10]: susceptible | caspase-3/7 activity / apoptosis in HeLa cells (HeLa cells): induces apoptosis | COMPARE correlation (P) of cytotoxicity profile with antimitotic/tubulin agents (NCI-60 cell lines): 0.75-0.85
